Source: patent US20260306642A1, “STAT DEGRADERS AND USES THEREOF” (Recludix Pharma, Inc., priority 2023, published 2026)

Legend:
[1] = biological target: T1, STAT3 (Homo sapiens, UniProt P40763); assay: STAT3 Fluorescence Polarization (FP) Assay; type: binding
T1 construct: Recombinant STAT3 protein (STAT3(G127-I722))
Procedure, shortened: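 Recombinant STAT3 (G127–I722, 25 nM) was mixed with 2 nM 5-FAM-GpYLPQTV-NH2 probe in HEPES pH 7.4 buffer with 1% DMSO and serially diluted compound. Fluorescence polarization was read after 45 min at room temperature. IC50 came from nonlinear regression of mP versus log concentration and was binned A (≤100 nM), B (>100–1000 nM), C (>1–10 μM) or D (>10 μM).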

[2] = biological target: T2, pSTAT6 (Homo sapiens, UniProt P42226); assay: MSD-pSTAT-PBMC Assay (pSTAT6, IL-4 stimulated); type: cell-based; details: compound 3 hrs, then 1 ng/mL IL-4 10 min, pY641-STAT6, read-out: pSTAT6 IC50
T2 sequence (P42226 1-847): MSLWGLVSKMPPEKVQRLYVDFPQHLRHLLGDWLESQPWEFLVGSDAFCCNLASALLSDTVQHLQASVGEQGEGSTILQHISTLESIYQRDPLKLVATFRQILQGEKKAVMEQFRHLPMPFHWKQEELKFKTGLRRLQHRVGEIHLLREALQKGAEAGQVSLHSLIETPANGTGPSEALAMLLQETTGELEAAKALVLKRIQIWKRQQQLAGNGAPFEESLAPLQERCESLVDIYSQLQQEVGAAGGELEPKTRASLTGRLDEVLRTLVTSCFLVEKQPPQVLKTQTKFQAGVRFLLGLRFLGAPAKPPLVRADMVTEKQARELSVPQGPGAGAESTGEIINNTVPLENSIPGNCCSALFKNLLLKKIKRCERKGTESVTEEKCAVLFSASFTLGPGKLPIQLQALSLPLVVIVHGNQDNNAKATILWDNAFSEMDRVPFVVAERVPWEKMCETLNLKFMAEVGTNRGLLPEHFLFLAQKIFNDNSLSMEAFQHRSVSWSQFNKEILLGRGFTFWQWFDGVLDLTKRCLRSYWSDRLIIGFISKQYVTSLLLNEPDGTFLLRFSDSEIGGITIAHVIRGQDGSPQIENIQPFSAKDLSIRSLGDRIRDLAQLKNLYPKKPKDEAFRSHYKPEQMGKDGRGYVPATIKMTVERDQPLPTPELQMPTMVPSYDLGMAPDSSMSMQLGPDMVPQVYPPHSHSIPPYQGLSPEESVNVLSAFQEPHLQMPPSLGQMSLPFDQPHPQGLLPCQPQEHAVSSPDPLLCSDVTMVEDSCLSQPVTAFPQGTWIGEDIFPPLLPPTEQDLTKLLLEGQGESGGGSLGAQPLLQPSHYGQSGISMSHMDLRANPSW
Source text: Cryopreserved Peripheral Blood Mononuclear Cells (PBMC) are from AllCells. Recombinant Human IL-4 and IL-6 are from Peprotech. Mouse monoclonal anti-STAT3 antibody, rabbit monoclonal anti-pY705-STAT3 antibody, rabbit monoclonal Anti-pY641-STAT6 antibody, and lysis buffer are from Cell Signaling Technology (CST). Mouse monoclonal anti-STAT6 antibody is from BioLegend. Assay plates, blocker, and anti-rabbit secondary antibody are from Meso Scale Discovery (MSD).
Cryopreserved PBMCs were thawed out and allowed to recover overnight in IMDM+10% heat-inactivated FBS prior to plating 50,000 (STAT3) or 25,000 (STAT6) cells per well in 96-well U-bottom tissue culture plates. Cells were treated with compound for 3 hrs, then stimulated with 10 ng/mL IL-6 (STAT3) or 1 ng/mL IL-4 (STAT6) for 10 min. Cells were then spun down and washed with ice-cold PBS prior to lysing the cell pellet with 1× lysis buffer (CST) with 1× HALT protease and phosphatase inhibitor cocktail (Thermo). Lysates were transferred to and incubated overnight at 4° C. with shaking in QuickPlex 96-well high bind assay plates (MSD) pre-coated overnight with 30 μL per well of […] mouse monoclonal anti-STAT3 antibody (STAT3) or 2 μg/mL mouse monoclonal anti-STAT6 antibody (STAT6) in 1× PBS, and pre-blocked for 1 hour with 3% Blocker-A (MSD). Captured protein in the assay plates were then washed and probed with 25 μL per well of […] rabbit monoclonal anti-pY705-STAT3 antibody (STAT3) or […] rabbit monoclonal Anti-pY641-STAT6 antibody (STAT6) in 1% Blocker-A for 1 hour at room temperature with shaking, then washed and probed with 25 ul per well of 1 ug/ml Sulfo-TAG Labeled Goat Anti-Rabbit Antibody (MSD) in 1% Blocker-A for 1 hour at room temperature with shaking. Assay plates were then washed and 150 μL of 1× Read Buffer-T (MSD) was added to each well prior to reading on an SQ120 MSD Plate Reader. Assay signal from each sample was subtracted by the signal from unstimulated control wells and normalized to DMSO control wells. IC50 values were calculated using Graph Pad Prism Dose-Response Nonlinear Regression with variable slope. For both pSTAT3 and pSTAT6 A=≤100 nM; B=>100-1000 nM; C=>1000-3000 nM; and D=>3 μM.

[3] = biological target: T3, STAT6 (Homo sapiens, UniProt P42226); assay: STAT6 Fluorescence Polarization (FP) Assay; type: binding
T3 construct: Recombinant STAT6 protein (STAT6(W123-T658))
T3 sequence (P42226 123-658): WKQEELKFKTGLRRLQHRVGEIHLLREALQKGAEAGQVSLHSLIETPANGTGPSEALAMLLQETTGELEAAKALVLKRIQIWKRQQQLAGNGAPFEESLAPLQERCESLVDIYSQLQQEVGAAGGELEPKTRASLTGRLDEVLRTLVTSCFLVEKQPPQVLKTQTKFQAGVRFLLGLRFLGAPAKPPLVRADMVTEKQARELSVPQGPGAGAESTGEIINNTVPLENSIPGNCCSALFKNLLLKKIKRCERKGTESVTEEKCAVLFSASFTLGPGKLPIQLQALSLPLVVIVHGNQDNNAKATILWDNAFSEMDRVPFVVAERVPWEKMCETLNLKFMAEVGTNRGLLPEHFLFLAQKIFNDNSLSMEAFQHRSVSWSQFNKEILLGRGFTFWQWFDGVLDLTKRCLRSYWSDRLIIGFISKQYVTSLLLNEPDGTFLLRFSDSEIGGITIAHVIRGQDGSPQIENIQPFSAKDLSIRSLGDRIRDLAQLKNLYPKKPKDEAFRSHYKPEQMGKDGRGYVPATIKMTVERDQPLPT
Procedure, shortened: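 STAT6(W123-T658) at 250 nM with 2 nM 5-FAM-ApYKPFQDLI-NH2 probe in HEPES pH 7.4, 50 mM NaCl, EDTA, Tween 20, DTT, 1% DMSO. FP read after 45 min at room temperature; IC50 from nonlinear fit of mP versus log concentration.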

T1 sequence (P40763 127-722): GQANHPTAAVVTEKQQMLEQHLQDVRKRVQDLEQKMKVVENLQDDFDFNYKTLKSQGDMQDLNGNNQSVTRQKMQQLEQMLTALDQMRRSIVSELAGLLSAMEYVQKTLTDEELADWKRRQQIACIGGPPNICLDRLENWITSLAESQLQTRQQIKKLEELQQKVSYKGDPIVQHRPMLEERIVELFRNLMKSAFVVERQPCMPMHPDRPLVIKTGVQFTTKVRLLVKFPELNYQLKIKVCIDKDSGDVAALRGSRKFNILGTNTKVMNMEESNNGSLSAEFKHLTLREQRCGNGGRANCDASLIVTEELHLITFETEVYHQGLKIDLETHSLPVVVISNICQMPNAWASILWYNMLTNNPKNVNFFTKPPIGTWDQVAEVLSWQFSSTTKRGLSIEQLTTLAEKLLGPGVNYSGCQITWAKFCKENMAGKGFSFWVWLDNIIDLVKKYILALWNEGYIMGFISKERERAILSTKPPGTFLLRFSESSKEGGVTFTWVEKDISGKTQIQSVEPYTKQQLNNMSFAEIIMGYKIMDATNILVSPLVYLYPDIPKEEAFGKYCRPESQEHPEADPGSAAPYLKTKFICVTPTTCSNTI

SMILES | IC50 [1] | IC50 [2] | IC50 [3]
O=C1CCC(c2ccc(OCCCCCOc3cc([C@@H]4CN(C(=O)[C@@H]5CC[C@@H]6CCCC[C@H](NC(=O)c7cc8cc(C(F)(F)P(=O)(O)O)ccc8s7)C(=O)N65)C5(CC5)C4)ccn3)cc2)C(=O)N1 (stereo partly drawn) [Compound 19, ((2-(((3S,6S,10aS)-3-((6R)-6-(2-((5-(4-(2,6-dioxopiperidin-3-yl)phenoxy)pentyl)oxy)pyridin-4-yl)-4-azaspiro[2.4]heptane-4-carbonyl)-5-oxodecahydropyrrolo[1,2-a]azocin-6-yl)carbamoyl)benzo[b]thiophen-5-yl)difluoromethyl)phosphonic acid] | 1000 to 10000 nM | > 3000 nM | 300 to 3000 nM
O=C1CCC(N2Cc3c(OCCOCCOCCn4ccc([C@@H]5CN(C(=O)[C@@H]6CC[C@@H]7CCCC[C@H](NC(=O)c8cc9cc(C(F)(F)P(=O)(O)O)ccc9s8)C(=O)N76)C6(CC6)C5)cc4=O)cccc3C2=O)C(=O)N1 (stereo partly drawn) [Compound 27, ((2-(((3S,6S,10aS)-3-((6R)-6-(1-(2-(2-(2-((2-(2,6-dioxopiperidin-3-yl)-1-oxoisoindolin-4-yl)oxy)ethoxy)ethoxy)ethyl)-2-oxo-1,2-dihydropyridin-4-yl)-4-azaspiro[2.4]heptane-4-carbonyl)-5-oxodecahydropyrrolo[1,2-a]azocin-6-yl)carbamoyl)benzo[b]thiophen-5-yl)difluoromethyl)phosphonic acid] | 1000 to 10000 nM | > 3000 nM | 300 to 3000 nM
CCCC(=O)SCCOP(=O)(OCCSC(=O)CCC)C(F)(F)c1ccc2sc(C(=O)N[C@H]3CCCC[C@H]4CC[C@@H](C(=O)N5C[C@@H](C#N)[C@H](c6cccc(OCCCCCC#Cc7cccc8c7CN(C7CCC(=O)NC7=O)C8=O)c6)C5)N4C3=O)cc2c1 (relative stereo) [Compound 14, S,S(((((2-(((3S,6S,10aS)-3-((rel-3S,4R)-3-cyano-4-(3-((7-(2-(2,6-dioxopiperidin-3-yl)-1-oxoisoindolin-4-yl)hept-6-yn-1-yl)oxy)phenyl)pyrrolidine-1-carbonyl)-5-oxodecahydropyrrolo[1,2-a]azocin-6-yl)carbamoyl)benzo[b]thiophen-5-yl)difluoromethyl)phosphoryl)bis(oxy))bis(ethane-2,1-diyl)) dibutanethioate] |  | 100 to 1000 nM | 
CCCC(=O)SCCOP(=O)(OCCSC(=O)CCC)C(F)(F)c1ccc2sc(C(=O)NC3CCCCC4CCC(C(=O)N5CC(C#N)C(c6cccc(OCCCCOc7ccc(C8CCC(=O)NC8=O)cc7)c6)C5)N4C3=O)cc2c1 [Compound 4, trans-S,S(((((2-(((3S,6S,10aS)-3-(3-cyano-4-(3-(4-(4-(2,6-dioxopiperidin-3-yl)phenoxy)butoxy)phenyl)pyrrolidine-1-carbonyl)-5-oxodecahydropyrrolo[1,2-a]azocin-6-yl)carbamoyl)benzo[b]thiophen-5-yl)difluoromethyl)phosphoryl)bis(oxy))bis(ethane-2,1-diyl)) dibutanethioate] |  | < 100 nM | 
CCCC(=O)SCCOP(=O)(OCCSC(=O)CCC)C(F)(F)c1ccc2sc(C(=O)N[C@H]3CCCC[C@H]4CC[C@@H](C(=O)N5C[C@@H](c6ccn(CCCCCOc7ccc(C8CCC(=O)NC8=O)cc7)c(=O)c6)CC56CC6)N4C3=O)cc2c1 (stereo partly drawn) [Compound 18, S,S(((((2-(((3S,6S,10aS)-3-((6R)-6-(1-(5-(4-(2,6-dioxopiperidin-3-yl)phenoxy)pentyl)-2-oxo-1,2-dihydropyridin-4-yl)-4-azaspiro[2.4]heptane-4-carbonyl)-5-oxodecahydropyrrolo[1,2-a]azocin-6-yl)carbamoyl)benzo[b]thiophen-5-yl)difluoromethyl)phosphoryl)bis(oxy))bis(ethane-2,1-diyl)) dibutanethioate] |  | < 100 nM | 
CCCC(=O)SCCOP(=O)(OCCSC(=O)CCC)C(F)(F)c1ccc2sc(C(=O)N[C@H]3CCCC[C@H]4CC[C@@H](C(=O)N5C[C@@H](c6ccn(CCOCCOCCOc7cccc8c7CN(C7CCC(=O)NC7=O)C8=O)c(=O)c6)CC56CC6)N4C3=O)cc2c1 (stereo partly drawn) [Compound 26, S,S((((2-(((3S,6S,10aS)-3-((6R)-6-(1-(2-(2-(2-((2-(2,6-dioxopiperidin-3-yl)-1-oxoisoindolin-4-yl)oxy)ethoxy)ethoxy)ethyl)-2-oxo-1,2-dihydropyridin-4-yl)-4-azaspiro[2.4]heptane-4-carbonyl)-5-oxodecahydropyrrolo[1,2-a]azocin-6-yl)carbamoyl)benzo[b]thiophen-5-yl)difluoromethyl)phosphoryl)bis(oxy))bis(ethane-2,1-diyl)) dibutanethioate] |  | 100 to 1000 nM | 
CCCC(=O)SCCOP(=O)(OCCSC(=O)CCC)C(F)(F)c1ccc2sc(C(=O)NC3CCCCC4CCC(C(=O)N5CC(C#N)C(c6cccc(OCCOCCOc7cccc8c7CN(C7CCC(=O)NC7=O)C8=O)c6)C5)N4C3=O)cc2c1 [Compound 15, S,S(((((2-(((3S,6S,10aS)-3-((rel-3S,4R)-3-cyano-4-(3-(2-(2-((2-(2,6-dioxopiperidin-3-yl)-1-oxoisoindolin-4-yl)oxy)ethoxy)ethoxy)phenyl)pyrrolidine-1-carbonyl)-5-oxodecahydropyrrolo[1,2-a]azocin-6-yl)carbamoyl)benzo[b]thiophen-5-yl)difluoromethyl)phosphoryl)bis(oxy))bis(ethane-2,1-diyl)) dibutanethioate] |  | < 100 nM | 
